Experiments:
[1] = target: T1, PhyB 1–624 fragment (PSM) (Arabidopsis thaliana, UniProt P14713); test: assembly in E. coli, zinc-induced fluorescence after SDS-PAGE, UV-Vis absorption; type: binding; conditions: covalent; GAF domain cysteine; 25 °C, pH 7.9
T1 construct: photosensory module (NTE-PAS-GAF-PHY), residues 1-624; N-terminal 6His-TEV tag cut off; E. coli BL21(DE3)
T1 sequence (P14713 1-624): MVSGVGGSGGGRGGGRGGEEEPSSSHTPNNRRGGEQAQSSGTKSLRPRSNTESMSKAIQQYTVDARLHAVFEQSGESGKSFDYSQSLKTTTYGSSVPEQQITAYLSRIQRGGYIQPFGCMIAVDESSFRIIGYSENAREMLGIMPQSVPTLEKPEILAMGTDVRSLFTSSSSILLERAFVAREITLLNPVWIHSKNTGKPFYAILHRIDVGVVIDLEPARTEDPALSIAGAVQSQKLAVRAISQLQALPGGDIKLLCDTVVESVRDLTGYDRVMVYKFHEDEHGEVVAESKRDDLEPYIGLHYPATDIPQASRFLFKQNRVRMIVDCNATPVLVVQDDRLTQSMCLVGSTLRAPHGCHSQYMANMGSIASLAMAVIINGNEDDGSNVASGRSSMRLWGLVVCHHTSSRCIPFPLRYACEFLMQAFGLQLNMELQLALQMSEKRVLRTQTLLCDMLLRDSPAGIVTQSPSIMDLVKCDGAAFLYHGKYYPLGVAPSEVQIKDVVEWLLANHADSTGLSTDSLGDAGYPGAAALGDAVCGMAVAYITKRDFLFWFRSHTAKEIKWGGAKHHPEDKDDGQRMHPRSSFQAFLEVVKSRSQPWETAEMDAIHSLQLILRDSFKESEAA

PhyB 1–908 fragment = target: T2, PhyB 1–908 fragment (Arabidopsis thaliana, UniProt P14713); test: as above; type: binding; conditions: covalent; GAF domain cysteine; 25 °C, pH 7.9
T2 construct: residues 1-908 (HKRD removed); N-terminal 6His-TEV tag cut off; E. coli BL21(DE3)
T2 sequence (P14713 1-908): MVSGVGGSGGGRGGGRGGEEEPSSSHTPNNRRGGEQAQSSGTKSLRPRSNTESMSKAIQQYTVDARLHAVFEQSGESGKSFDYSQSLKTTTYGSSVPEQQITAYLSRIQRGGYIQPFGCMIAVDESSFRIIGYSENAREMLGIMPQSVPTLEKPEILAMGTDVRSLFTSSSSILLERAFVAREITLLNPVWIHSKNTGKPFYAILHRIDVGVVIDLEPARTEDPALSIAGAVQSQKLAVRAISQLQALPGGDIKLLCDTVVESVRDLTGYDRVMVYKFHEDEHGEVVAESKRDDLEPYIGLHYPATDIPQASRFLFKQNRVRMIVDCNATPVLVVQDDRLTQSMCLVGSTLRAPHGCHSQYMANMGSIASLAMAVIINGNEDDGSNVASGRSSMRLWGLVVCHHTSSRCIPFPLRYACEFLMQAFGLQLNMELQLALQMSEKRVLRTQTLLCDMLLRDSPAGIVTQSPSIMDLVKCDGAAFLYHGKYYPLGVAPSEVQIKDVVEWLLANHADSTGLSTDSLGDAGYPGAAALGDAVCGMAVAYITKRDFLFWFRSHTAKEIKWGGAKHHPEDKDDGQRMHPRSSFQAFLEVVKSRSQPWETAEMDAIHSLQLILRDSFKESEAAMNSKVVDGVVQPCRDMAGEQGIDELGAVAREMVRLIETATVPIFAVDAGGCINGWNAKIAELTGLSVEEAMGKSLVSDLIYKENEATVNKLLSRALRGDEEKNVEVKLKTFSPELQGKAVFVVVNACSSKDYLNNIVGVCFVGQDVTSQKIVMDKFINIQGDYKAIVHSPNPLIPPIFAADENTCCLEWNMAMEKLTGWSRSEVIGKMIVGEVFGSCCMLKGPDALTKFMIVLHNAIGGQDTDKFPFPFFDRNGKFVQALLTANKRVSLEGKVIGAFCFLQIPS

PhyB 1–450 fragment = target: T3, PhyB 1–450 fragment (Arabidopsis thaliana, UniProt P14713); test: as above; type: binding; conditions: covalent; GAF domain cysteine; 25 °C, pH 7.9
T3 construct: NTE-PAS-GAF, residues 1-450; N-terminal 6His-TEV tag cut off; E. coli BL21(DE3)
T3 sequence (P14713 1-450): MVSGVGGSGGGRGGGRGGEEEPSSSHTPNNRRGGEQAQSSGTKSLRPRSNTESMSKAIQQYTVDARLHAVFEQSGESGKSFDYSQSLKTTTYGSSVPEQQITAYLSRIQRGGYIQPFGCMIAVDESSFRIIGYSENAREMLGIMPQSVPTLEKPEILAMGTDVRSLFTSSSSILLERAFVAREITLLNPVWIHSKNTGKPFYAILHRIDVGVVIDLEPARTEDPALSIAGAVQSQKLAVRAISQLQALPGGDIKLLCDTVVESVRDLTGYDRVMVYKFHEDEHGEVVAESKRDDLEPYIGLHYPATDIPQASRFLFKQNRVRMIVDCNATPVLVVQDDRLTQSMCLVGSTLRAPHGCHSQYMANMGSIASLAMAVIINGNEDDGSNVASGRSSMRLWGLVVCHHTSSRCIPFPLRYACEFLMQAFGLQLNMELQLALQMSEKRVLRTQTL

[2] = target: T4, PhyB 100–624 (NTE truncation) (Arabidopsis thaliana, UniProt P14713); test: as above; type: binding; conditions: covalent; GAF domain cysteine; 25 °C, pH 7.9
T4 construct: PSM residues 100-624; N-terminal 6His-TEV tag cut off; E. coli BL21(DE3)

[3] = target: T5, PhyB 90–624 (NTE truncation) (Arabidopsis thaliana, UniProt P14713); test: as above; type: binding; conditions: covalent; GAF domain cysteine; 25 °C, pH 7.9
T5 construct: PSM residues 90-624; N-terminal 6His-TEV tag cut off; E. coli BL21(DE3); 4OUR is an earlier structure of this fragment

[4] = target: T6, PhyB 51–624 (NTE truncation) (Arabidopsis thaliana, UniProt P14713); test: as above; type: binding; conditions: covalent; GAF domain cysteine; 25 °C, pH 7.9
T6 construct: PSM residues 51-624; N-terminal 6His-TEV tag cut off; E. coli BL21(DE3)

full-length (FL) PhyB = target: T7, full-length (FL) PhyB (Arabidopsis thaliana, UniProt P14713); test: as above; type: binding; conditions: covalent; GAF domain cysteine; 25 °C, pH 7.9
T7 construct: full length, 1172 residues; N-terminal 6His-TEV tag cut off; intron-less gene; E. coli BL21(DE3); homodimer, 320 kDa by SEC
T7 sequence (P14713 1-1172): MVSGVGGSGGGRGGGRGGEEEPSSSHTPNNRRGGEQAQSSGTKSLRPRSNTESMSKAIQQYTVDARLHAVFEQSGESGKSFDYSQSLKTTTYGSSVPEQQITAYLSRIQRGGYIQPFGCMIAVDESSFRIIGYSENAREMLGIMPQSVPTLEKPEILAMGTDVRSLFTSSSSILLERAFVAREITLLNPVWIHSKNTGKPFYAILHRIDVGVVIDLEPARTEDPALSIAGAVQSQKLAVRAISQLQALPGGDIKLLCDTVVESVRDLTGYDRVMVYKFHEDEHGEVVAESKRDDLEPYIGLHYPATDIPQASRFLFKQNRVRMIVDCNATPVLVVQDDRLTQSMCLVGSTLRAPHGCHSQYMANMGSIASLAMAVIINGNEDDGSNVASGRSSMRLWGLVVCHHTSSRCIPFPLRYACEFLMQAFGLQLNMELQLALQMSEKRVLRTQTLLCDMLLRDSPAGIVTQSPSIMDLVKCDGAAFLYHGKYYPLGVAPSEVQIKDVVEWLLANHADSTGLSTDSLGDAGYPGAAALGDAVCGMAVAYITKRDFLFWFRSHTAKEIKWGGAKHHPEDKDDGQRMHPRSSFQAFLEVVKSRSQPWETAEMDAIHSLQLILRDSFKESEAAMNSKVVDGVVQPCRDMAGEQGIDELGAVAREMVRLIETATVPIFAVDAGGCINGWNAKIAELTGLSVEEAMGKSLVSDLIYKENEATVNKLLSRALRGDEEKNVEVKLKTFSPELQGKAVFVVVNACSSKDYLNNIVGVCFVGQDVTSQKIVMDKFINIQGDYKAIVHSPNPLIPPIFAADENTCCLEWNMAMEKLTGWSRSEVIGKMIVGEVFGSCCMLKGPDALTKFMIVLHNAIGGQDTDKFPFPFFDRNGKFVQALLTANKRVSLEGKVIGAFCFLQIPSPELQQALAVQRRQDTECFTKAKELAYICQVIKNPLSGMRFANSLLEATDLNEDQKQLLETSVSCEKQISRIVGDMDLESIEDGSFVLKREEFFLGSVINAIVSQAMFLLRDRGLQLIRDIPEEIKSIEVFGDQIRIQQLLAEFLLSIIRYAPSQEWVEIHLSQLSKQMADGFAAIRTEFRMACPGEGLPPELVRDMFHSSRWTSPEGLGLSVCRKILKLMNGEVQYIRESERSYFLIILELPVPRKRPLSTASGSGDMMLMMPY

[5] = target: the molecule itself; test: SEC; Superdex 200 HR 10/30, 10 °C, 150 mM KCl, 50 mM HEPES-NaOH pH 7.8, 0.3 mM TCEP; samples as Pr at 0.6 mg/ml; apparent mass from size standards; monomer to dimer

Molecule | assembly in E. coli, zinc-induced fluorescence after SDS-PAGE, UV-Vis absorption [1] | assembly in E. coli, zinc-induced fluorescence after SDS-PAGE, UV-Vis absorption (PhyB 1–908 fragment) | assembly in E. coli, zinc-induced fluorescence after SDS-PAGE, UV-Vis absorption (PhyB 1–450 fragment) | assembly in E. coli, zinc-induced fluorescence after SDS-PAGE, UV-Vis absorption [2] | assembly in E. coli, zinc-induced fluorescence after SDS-PAGE, UV-Vis absorption [3] | assembly in E. coli, zinc-induced fluorescence after SDS-PAGE, UV-Vis absorption [4] | assembly in E. coli, zinc-induced fluorescence after SDS-PAGE, UV-Vis absorption (full-length (FL) PhyB) | stoichiometry N [5]
C=CC1=C(C)/C(=C/C2=NC(=C\c3[nH]c(/C=C4\NC(=O)[C@H](C)\C4=C/C)c(C)c3CCC(=O)O)/C(CCC(=O)O)=C2C)NC1=O [PΦB] | The truncations were expressed and assembled with PΦB in Escherichia coli | The truncations were expressed and assembled with PΦB in Escherichia coli | The truncations were expressed and assembled with PΦB in Escherichia coli | all of the truncations expressed well, efficiently assembled with PΦB, and displayed normal Pr absorption | all of the truncations expressed well, efficiently assembled with PΦB, and displayed normal Pr absorption | all of the truncations expressed well, efficiently assembled with PΦB, and displayed normal Pr absorption | purified chromoproteins were readily obtained with high bilin occupancy and near normal Pr absorption | 
C/C=C1/C(=C/c2[nH]c(/C=C3N=C(/C=C4\NC(=O)C(CC)=C4C)C(C)=C\3CCC(=O)O)c(CCC(=O)O)c2C)NC(=O)[C@@H]1C [PCB] |  |  | the fragment assembled with PCB generated as least some of a ‘Pfr’-like state |  |  |  | recombinant PhyB assembled with PCB with efficiencies equal to that seen for PΦB | 
full-length Arabidopsis thaliana PhyB assembled with PΦB (natural protein, UniProt P14713 1-1172, looked up, phytochromobilin (PΦB) covalently bound to the cysteine of the GAF domain, Phytochrome B (PhyB), Arabidopsis thaliana, full-length 1172-residue polypeptide, from an intron-less PhyB gene designed for recombinant expression; Analysed as Pr; TEV cleavage of the printed tag probably leaves its last G at the N-terminus (surmised); also called FL PhyB; FL) MVSGVGGSGGGRGGGRGGEEEPSSSHTPNNRRGGEQAQSSGTKSLRPRSNTESMSKAIQQYTVDARLHAVFEQSGESGKSFDYSQSLKTTTYGSSVPEQQITAYLSRIQRGGYIQPFGCMIAVDESSFRIIGYSENAREMLGIMPQSVPTLEKPEILAMGTDVRSLFTSSSSILLERAFVAREITLLNPVWIHSKNTGKPFYAILHRIDVGVVIDLEPARTEDPALSIAGAVQSQKLAVRAISQLQALPGGDIKLLCDTVVESVRDLTGYDRVMVYKFHEDEHGEVVAESKRDDLEPYIGLHYPATDIPQASRFLFKQNRVRMIVDCNATPVLVVQDDRLTQSMCLVGSTLRAPHGCHSQYMANMGSIASLAMAVIINGNEDDGSNVASGRSSMRLWGLVVCHHTSSRCIPFPLRYACEFLMQAFGLQLNMELQLALQMSEKRVLRTQTLLCDMLLRDSPAGIVTQSPSIMDLVKCDGAAFLYHGKYYPLGVAPSEVQIKDVVEWLLANHADSTGLSTDSLGDAGYPGAAALGDAVCGMAVAYITKRDFLFWFRSHTAKEIKWGGAKHHPEDKDDGQRMHPRSSFQAFLEVVKSRSQPWETAEMDAIHSLQLILRDSFKESEAAMNSKVVDGVVQPCRDMAGEQGIDELGAVAREMVRLIETATVPIFAVDAGGCINGWNAKIAELTGLSVEEAMGKSLVSDLIYKENEATVNKLLSRALRGDEEKNVEVKLKTFSPELQGKAVFVVVNACSSKDYLNNIVGVCFVGQDVTSQKIVMDKFINIQGDYKAIVHSPNPLIPPIFAADENTCCLEWNMAMEKLTGWSRSEVIGKMIVGEVFGSCCMLKGPDALTKFMIVLHNAIGGQDTDKFPFPFFDRNGKFVQALLTANKRVSLEGKVIGAFCFLQIPSPELQQALAVQRRQDTECFTKAKELAYICQVIKNPLSGMRFANSLLEATDLNEDQKQLLETSVSCEKQISRIVGDMDLESIEDGSFVLKREEFFLGSVINAIVSQAMFLLRDRGLQLIRDIPEEIKSIEVFGDQIRIQQLLAEFLLSIIRYAPSQEWVEIHLSQLSKQMADGFAAIRTEFRMACPGEGLPPELVRDMFHSSRWTSPEGLGLSVCRKILKLMNGEVQYIRESERSYFLIILELPVPRKRPLSTASGSGDMMLMMPY |  |  |  |  |  |  |  | 2

Source: paper PMC5651913, “Photosensing and Thermosensing by Phytochrome B Require Both Proximal and Distal Allosteric Features within the Dimeric Photoreceptor” (Scientific Reports, 2017)
